Measured values published in US12286474B2, “Anti-CD38 antibodies for treatment of acute myeloid leukemia” (Janssen Biotech, Inc., priority 2014, dated 2025).

Assays:
NB-4 AML cell line [1] = experiment: CD38 surface expression by FACS with PE-labeled anti-CD38 antibody; assay type: cell-based; settings: 24 hours; for PE-CD38 molecules/cell: NB-4
Experimental: Effect of ATRA on CD38 surface expression was assessed in NB-4 AML cell line. Tumor cells were incubated at 37° C. for 24 hours in the presence or absence of 10 nM or 100 nM ATRA. After 24 hour incubation, the cells were harvested and stained for CD38. ATRA induced ˜10-fold increase in CD38 receptors in the NB-4 cell line. CD38 surface expression was assessed using FACS using PE-labeled anti-CD38 antibody (R&D Systems) (Table 2).

ML-2 [2] = experiment: Apoptosis (Annexin-V flow cytometry); assay type: cell-based; settings: antibody 1 μg/ml, 22 hours, early and late apoptosis
Experimental: (§1) One ml of target cells (5×10^5 cells/ml) were added to the well of a 24-well plate, together with test antibody (1 μg/ml) in the presence or absence of rabbit anti-huIgG (10 μg/ml; F(ab′)2 Fcγ-specific). Cells were incubated for 22 hours (5% CO2, 37° C.). Thereafter, cells were harvested (1000 rpm, 5 min) and washed twice in PBS (1000 rpm, 5 min). Cells were resuspended in 250 μl binding buffer (Annexin-V Apoptosis kit, BD Biosciences) according to manufacturer's instruction, followed by flow cytometry analysis.
(§2) Apoptosis was measured by both early and late apoptosis (Q2 and Q3 in FIG. 1A and FIG. 1B).

MOLM-13 [3] = experiment: Apoptosis (Annexin-V flow cytometry); assay type: cell-based; settings: antibody 1 μg/ml, 22 hours, early and late apoptosis
Experimental: as §1, §2

MOLM-16 [4] = experiment: Apoptosis (Annexin-V flow cytometry); assay type: cell-based; settings: antibody 1 μg/ml, 22 hours, early and late apoptosis
Experimental: as §1, §2

MV-4-11 [5] = experiment: Apoptosis (Annexin-V flow cytometry); assay type: cell-based; settings: antibody 1 μg/ml, 22 hours, early and late apoptosis
Experimental: as §1, §2

NB-4 AML cell line [6] = experiment: Apoptosis (Annexin-V flow cytometry); assay type: cell-based; settings: for daratumumab-induced apoptosis: NB-4 cell line
Experimental: as §1, §2

THP-1 [7] = experiment: Apoptosis (Annexin-V flow cytometry); assay type: cell-based; settings: antibody 1 μg/ml, 22 hours, early and late apoptosis
Experimental: as §1, §2

ML-2 [8] = experiment: CDC (cell lysis, CellTiter-Glo); assay type: cell-based; settings: human serum 10%
Experimental: (§3) Target cells were harvested and adjusted to a concentration of 80×10^4 cells/ml. Twelve μl of target cells were added to wells of a 96-well plate, and serial dilution of antibodies added onto the cells. The wells were incubated for 15 minutes, after which human serum high in complement was added at a final concentration of 10%. Reaction mixture was incubated for 21/2 hours at 37° C., and cell lysis was measured using the CellTiter-Glo® assay (Promega).

MOLM-13 [9] = experiment: CDC (cell lysis, CellTiter-Glo); assay type: cell-based; settings: human serum 10%
Experimental: as §3

MOLM-16 [10] = experiment: CDC (cell lysis, CellTiter-Glo); assay type: cell-based; settings: human serum 10%
Experimental: as §3

MV-4-11 [11] = experiment: CDC (cell lysis, CellTiter-Glo); assay type: cell-based; settings: human serum 10%
Experimental: as §3

NB4 [12] = experiment: CDC (cell lysis, CellTiter-Glo); assay type: cell-based; settings: human serum 10%
Experimental: as §3

THP-1 [13] = experiment: CDC (cell lysis, CellTiter-Glo); assay type: cell-based; settings: human serum 10%
Experimental: as §3

ML-2 [14] = experiment: In vitro ADCC with PBMC effector cells; assay type: cell-based; settings: PBMC effector cells at ratio 50:1, 6 hours
Experimental: (§4) In vitro ADCC assays were performed using AML tumor cell lines and Peripheral Blood Mononuclear Cells (PBMC) as effector cells at a ratio of 50:1. One hundred μl of target (tumor) cells (1×10^4 cells) were added to wells of 96-well U-bottom plates. An additional 100 μl was added with or without antibody, and the plates were incubated for 30 minutes at room temperature (RT) before adding effector cells (PBMC). Seventy five μl of PBMCs at concentration 6.66×10^6 cells/ml was added to the wells of the plates, and the plates were incubated at 37° C. for 6 hours. Plates were centrifuged at 250 g for 4 minutes, 50 μl of supernatant removed per well and cell lysis was measured using the CellTiter-Glo® assay (Promega).

MOLM-13 [15] = experiment: In vitro ADCC with PBMC effector cells; assay type: cell-based; settings: PBMC effector cells at ratio 50:1, 6 hours
Experimental: as §4

MOLM-16 [16] = experiment: In vitro ADCC with PBMC effector cells; assay type: cell-based; settings: PBMC effector cells at ratio 50:1, 6 hours
Experimental: as §4

MV-4-11 [17] = experiment: In vitro ADCC with PBMC effector cells; assay type: cell-based; settings: PBMC effector cells at ratio 50:1, 6 hours
Experimental: as §4

NB4 [18] = experiment: In vitro ADCC with PBMC effector cells; assay type: cell-based; settings: PBMC effector cells at ratio 50:1, 6 hours
Experimental: as §4

THP-1 [19] = experiment: In vitro ADCC with PBMC effector cells; assay type: cell-based; settings: PBMC effector cells at ratio 50:1, 6 hours
Experimental: as §4

AML cell lines [20] = experiment: Apoptosis, summary over AML cell lines; assay type: cell-based
Experimental: as §1, §2

AML cell lines [21] = experiment: CDC, summary over AML cell lines; assay type: cell-based
Experimental: as §3

AML cell lines [22] = experiment: ADCC, summary over AML cell lines; assay type: cell-based
Experimental: as §4

AML 3406 model = experiment: Patient-derived xenograft (PDX) AML 3406 model, leukemic burden; assay type: in vivo, NSG mice; settings: for tumor burden (% leukemic CD45+CD33+ cells): i.p. 10 mg/kg once a week, 5 weeks
Excerpt: (§5) Patient tumor models AML 3406, AML 7577 and AML 8096 were used in the study.
AML3406 model: Patient tumor cells were positive for FLT-3ITD. Patient has a history of polycythemia versa, and received idarubicin/cytrabine for induction chemotherapy. Patient also received Hudrea® (hydroxyurea).
(§6) 5 million AML MNCs were T-cell depleted and transplanted via tail vein into 6-8 weeks old sub-lethally irradiated NSG mice (n=10 per group). 4 to 6 weeks post-engraftment, bone marrow aspirates were collected from each mouse and were analyzed by flow cytometry to determine the level of leukemia engraftment (% of human CD45^+CD33^+/− cells). Based on engraftment levels, mice were randomized and conditioned with either IgG1 or daratumumab (DARA, pre-dosing at 0.5 mg/kg). 24 hours later, mice were untreated (Ctrl) or treated for 5 consecutive weeks with DARA or IgG1 alone (i.p, 10 mg/kg once a week). 2-3 days after the last treatment, mice were sacrificed and bone marrow, spleen, peripheral blood and plasma were collected for analysis. Flow cytometry was performed to assess percentage of human CD45^+CD33^+ cells in the BM, SPL and PB of 3 AML patients engrafted in NSG mice (AML 3406 model: FIG. 2A; AML 7577 model: FIG. 2B, AML 8096 model: FIG. 2C) and absolute number of the human CD45^+CD33^+ cells in bone marrow (FIG. 3A), spleen (FIG. 3B) and peripheral blood (FIG. 3C) of one representative AML patient.

AML 7577 model = experiment: Patient-derived xenograft (PDX) AML 7577 model, leukemic burden; assay type: in vivo, NSG mice; settings: peripheral blood, i.p. 10 mg/kg once a week, 5 weeks
Excerpt: as §5
AML 7577 model: Leukemic cells were collected from a person with AML (FAB subtype M5). Patient had normal karyotype and following mutations: IDH2(R140Q); FLT3-ITD; DNMT3A R882H, NPM1, CEBPA insertion (SNP). Patient has a history of polycythemia versa, and received idarubicin/cytrabine for induction chemotherapy. Patient also received Hudrea® (hydroxyurea).
as §6, with “Flow cytometry was performed to assess percentage of human CD45^+CD33^+ cells in the BM, SPL and PB of 3 AML patients engrafted in NSG mice (AML 3406 model: FIG. 2A; AML 7577 model: FIG. 2B, AML 8096 model: FIG. 2C) and absolute number of the human CD45^+CD33^+ cells in bone marrow (FIG. 3A), spleen (FIG. 3B) and peripheral blood (FIG. 3C) of one representative AML patient.” left out

AML 8096 model = experiment: Patient-derived xenograft (PDX) AML 8096 model, leukemic burden; assay type: in vivo, NSG mice; settings: spleen, i.p. 10 mg/kg once a week, 5 weeks
Excerpt: as §5
AML 8096 model: Leukemic cells were collected from a person with AML (FAB subtype M2). White blood cell count was 20×10e^9/L, from which 70% were blast cells. Patient had normal karyotype with wild type TP53, FLT3, NPM1, and insertion 570-587, 3GCACCC>4GCACCC in CEBPA exon1. Patient has a history of polycythemia versa, and received idarubicin/cytrabine for induction chemotherapy. Patient also received Hudrea® (hydroxyurea).
as §6, with “Flow cytometry was performed to assess percentage of human CD45^+CD33^+ cells in the BM, SPL and PB of 3 AML patients engrafted in NSG mice (AML 3406 model: FIG. 2A; AML 7577 model: FIG. 2B, AML 8096 model: FIG. 2C) and absolute number of the human CD45^+CD33^+ cells in bone marrow (FIG. 3A), spleen (FIG. 3B) and peripheral blood (FIG. 3C) of one representative AML patient.” left out

[23] = test system: CD38 on leukemia blasts (CD45+CD33+ positive cells); experiment: CD38 expression on leukemic blasts in PDX AML 3406 model; assay type: in vivo, NSG mice; settings: after 5 weeks of treatment
Experimental: as §6
Effect of daratumumab on CD38 expression on leukemic blasts was assessed in one representative AML model described in Example 3 after 5 weeks of treatment with daratumumab or isotype control using PE-labeled anti-CD38 antibody (R&D Systems).

CC1=C(/C=C/C(C)=C/C=C/C(C)=C/C(=O)O)C(C)(C)CCC1 [ATRA, all-trans-retinoic acid]
PE-CD38 molecules/cell (NB-4 AML cell line [1]; 10 nM ATRA): 185737 molecules/cell
PE-CD38 molecules/cell (NB-4 AML cell line [1]; 100 nM ATRA): 210570 molecules/cell
increase in CD38 receptors (NB-4 AML cell line [1]; NB-4 cell line, 10 nM or 100 nM ATRA): ~10 fold

daratumumab
Apoptosis (ML-2 [2]): 5%
Apoptosis (MOLM-13 [3]): 10-15%
Apoptosis (MOLM-16 [4]): 20-30%
Apoptosis (MV-4-11 [5]): 10-12%
Apoptosis (NB-4 AML cell line [6]; NB4, antibody 1 μg/ml, 22 hours, early and late apoptosis): 18%
daratumumab-induced apoptosis (NB-4 AML cell line [6]; with crosslinking antibody (FIG. 1B)): 18.3%
daratumumab-induced apoptosis (NB-4 AML cell line [6]; without crosslinking antibody (FIG. 1A)): 19.2%
Apoptosis (THP-1 [7]): 5-7%
CDC (ML-2 [8]): 0%
CDC (MOLM-13 [9]): 0%
CDC (MOLM-16 [10]): 5%
CDC (MV-4-11 [11]): 0%
CDC (NB4 [12]): 4%
CDC (THP-1 [13]): 5%
ADCC (ML-2 [14]): 6.30%
ADCC (MOLM-13 [15]): 9.40%
ADCC (MOLM-16 [16]): 18.20%
ADCC (MV-4-11 [17]): 2.30%
ADCC (NB4 [18]): 18.30%
ADCC (THP-1 [19]): 11.30%
AML cell killing by apoptosis (AML cell lines [20]): induced AML cell killing by apoptosis
CDC (AML cell lines [21]): did not induce significant ADCC or CDC
ADCC (AML cell lines [22]): did not induce significant ADCC or CDC
total leukemic burden (number of CD45+CD33+ cells per four bones) (AML 3406 model; bone marrow, Ctrl vs Dara): no significant difference
total leukemic burden (number of CD45+CD33+ cells per μl blood) (AML 3406 model; peripheral blood): significantly reduced total leukemic burden
tumor burden (% leukemic CD45+CD33+ cells) (AML 3406 model; peripheral blood): reduced tumor burden
total leukemic burden (number of CD45+CD33+ cells per spleen) (AML 3406 model; spleen): significantly reduced total leukemic burden
tumor burden (% leukemic CD45+CD33+ cells) (AML 3406 model; spleen): reduced tumor burden
tumor burden (% leukemic CD45+CD33+ cells) (AML 7577 model): reduced tumor burden
tumor burden (% leukemic CD45+CD33+ cells) (AML 8096 model): reduced tumor burden
percentage of CD38-positive AML blasts ([23]; bone marrow, spleen and peripheral blood (FIG. 4B)): reduced
expression of CD38 on leukemia blasts ([23]; bone marrow): reduced expression of CD38
expression of CD38 on leukemia blasts ([23]; peripheral blood): reduced expression of CD38
expression of CD38 on leukemia blasts ([23]; spleen): reduced expression of CD38
